This assay is described as follows: Inhibition of RIP1 in human U937 cells assessed as prevention of TNFalpha/zVAD.fmk-induced necrotic cell death preincubated for 30 to 60 mins followed by TNF-alpha induction measured after overnight incubation by Cell Titer-Glo luminescence assay. On the technique in general: In ATP-based viability assays light output follows the ATP content of the culture.

Our source for the IC50 values is BindingDB's records for doi:10.1021/ml400382p (Glaxosmithkline, 2013).

The term IC50 denotes the concentration at which inhibition is half-maximal. Consider `Nc1nccc2c(-c3ccc(NC(=O)Nc4ccc(F)c(C(F)(F)F)c4)cc3)cccc12`, for which the half-inhibitory concentration (IC50) is 2500 nM. With `NC(=O)c1cccc(-c2cnc3[nH]cc(-c4cccc(NC(=O)Nc5cc(C(F)(F)F)ccc5F)c4)c3c2)c1`, the concentration for half-maximal inhibition (IC50) was determined as 63 nM.

In the case of `CC(C)(C)c1cc(NC(=O)Nc2ccc(-c3coc4ncnc(N)c34)cc2)no1`, the IC50 stood at 200 nM.

As for `CS(=O)(=O)c1cccc(-c2cnc3[nH]cc(-c4cccc(NC(=O)Nc5cc(C(F)(F)F)ccc5F)c4)c3c2)c1`, the IC50 amounted to 50 nM. For the compound `Nc1ncnc2occ(-c3ccc(NC(=O)Nc4cc(C(F)(F)F)cc(C(F)(F)F)c4)cc3)c12` [3-(4-{4-aminofuro[2,3-d]pyrimidin-5-yl}phenyl)-1-[3,5-bis(trifluoromethyl)phenyl]urea], the IC50 was 7900 nM. With `Nc1ncnc2occ(-c3ccc(NC(=O)Nc4cccc(C(F)(F)F)c4)cc3)c12` [3-(4-{4-aminofuro[2,3-d]pyrimidin-5-yl}phenyl)-1-[3-(trifluoromethyl)phenyl]urea], the IC50 stood at 1000 nM. Consider `O=C(Nc1cccc(-c2c[nH]c3ncc(-c4cccnc4)cc23)c1)Nc1cc(C(F)(F)F)ccc1F`, for which the half-inhibitory concentration (IC50) worked out at 6.3 nM. As for `CC(=O)c1cccc(NC(=O)Nc2cccc(-c3c[nH]c4ncc(-c5ccccc5)cc34)c2)c1`, the 50% inhibitory concentration (IC50) is 320 nM. On to `O=C(Nc1cccc(-c2c[nH]c3ncc(-c4ccccc4)cc23)c1)Nc1cccc(C(F)(F)F)c1`, for which the IC50 worked out at 79 nM. `CCc1cccc(NC(=O)Nc2ccc(-c3coc4ncnc(N)c34)cc2)c1`: the IC50 amounted to 250 nM.

Regarding `O=C(Nc1cccc(-c2c[nH]c3ncc(-c4ccccc4)cc23)c1)Nc1cc(C(F)(F)F)ccc1F`, the IC50 is 160 nM. Regarding `CCS(=O)(=O)c1ccc(-c2cnc3[nH]cc(-c4cccc(NC(=O)Nc5cc(C(F)(F)F)ccc5F)c4)c3c2)cc1`, the IC50 came to 25 nM. As for `Nc1nccc2c(-c3ccc(NC(=O)Nc4cc(C(F)(F)F)ccc4Cl)cc3)cccc12`, the IC50 was greater than 10000 nM. The value for `Nc1ncnc2occ(-c3ccc(NC(=O)Nc4ccc(Cl)c(C(F)(F)F)c4)cc3)c12` was 1300 nM. With `Nc1nccc2c(-c3ccc(NC(=O)Nc4ccc(Cl)c(C(F)(F)F)c4)cc3)cccc12` the figure was 2000 nM; with `O=C(Nc1ccccc1)Nc1cccc(-c2c[nH]c3ncc(-c4ccccc4)cc23)c1` [1-phenyl-3-(3-(5-phenyl-1H-pyrrolo[2,3-b]pyridin-3-yl)phenyl)urea], 600 nM; with `Nc1nccc2c(-c3ccc(NC(=O)Nc4cc(F)cc(C(F)(F)F)c4)cc3)cccc12`, 2500 nM. Regarding `COc1cccc(NC(=O)Nc2cccc(-c3c[nH]c4ncc(-c5ccccc5)cc34)c2)c1`, the half-inhibitory concentration (IC50) worked out at 400 nM.

`O=C(Nc1cccc(-c2c[nH]c3ncc(-c4cn[nH]c4)cc23)c1)Nc1cc(C(F)(F)F)ccc1F`: the IC50 was 63 nM.

`Nc1nccc2c(-c3ccc(NC(=O)Nc4cccc(C(F)(F)F)c4)cc3)cccc12`: the IC50 worked out at 630 nM. For `Nc1ncnc2occ(-c3ccc(NC(=O)Nc4cccc(C(F)(F)F)c4F)cc3)c12`, the IC50 was 10000 nM. With `Nc1ccc(-c2cnc3[nH]cc(-c4cccc(NC(=O)Nc5cc(C(F)(F)F)ccc5F)c4)c3c2)cc1`, the IC50 was found to be 16 nM. Turning to `Nc1ncnc2occ(-c3ccc(NC(=O)Nc4cc(F)cc(C(F)(F)F)c4)cc3)c12`, the IC50 stood at 5000 nM. Regarding `Nc1ncnc2occ(-c3ccc(NC(=O)Nc4ccc(F)c(C(F)(F)F)c4)cc3)c12`, the IC50 was found to be 1300 nM. Turning to `O=C(Nc1cccc(-c2c[nH]c3ncc(-c4ccccc4)cc23)c1)Nc1cccc([N+](=O)[O-])c1`, the IC50 is 320 nM. Regarding `Nc1nccc2c(-c3ccc(NC(=O)Nc4cc(C(F)(F)F)ccc4F)cc3)cccc12`, the IC50 came out at 630 nM.

As for `Nc1ncnc2occ(-c3ccc(NC(=O)Nc4cccc(Cl)c4)cc3)c12`, the IC50 was 7900 nM. The value for `Nc1ncnc2occ(-c3ccc(NC(=O)Nc4ccc5ccccc5c4)cc3)c12` [3-(4-{4-aminofuro[2,3-d]pyrimidin-5-yl}phenyl)-1-naphthalen-2-ylurea] was 790 nM; that for `O=C(Nc1cccc(-c2c[nH]c3ncc(-c4ccccc4)cc23)c1)NC1CCCC1` was 7900 nM.
